Test results reported in patent US5830910A (priority 1995, dated 1998).
Read-outs that look alike come from different tables or passages of the source.

Key:
[1] = tested on: cultured hippocampal neurons; experiment: iron (FeSO4) neurotoxicity; assay type: cell-based, rat
From the text: (§1) Dissociated embryonic rat hippocampal cell cultures were established and maintained. All procedures conformed with the NIH Guide for the Care and Use of Laboratory Animals and were approved by the University of Kentucky Animal Care and Use Committee. Cultures were maintained on a polyethyleneimine-coated substrate in plastic 35-mm dishes or 96 wall plates (for cell survival studies) or glass-bottom 35-mm dishes (for [Ca^2+ ]i imaging studies). The cell density was ^~ 70-100 cells/mm^2. Cells were maintained in Eagle's minimum essential medium supplemented 10% with fetal bovine serum and containing 20 mM sodium pyruvate. […] Aβ25-35 (Bachem, lot ZJ744) and Aβ1-40 (Bachem, lot ZK600) were stored in the lyophilized form, and stocks were prepared immediately before use by dissolving the peptide at a concentration of 1 mM in sterile distilled water. […] Glutamate and colchicine (Sigma) were prepared as 200-500x stocks in saline. Cytochalasins D and E (Sigma) and calcium ionophore 4-bromo-A23187 (Calbiochem) were prepared as 500x stocks in dimethyl sulfoxide. Vitamin E (α-tocopherol; Sigma) was prepared as a 500x stock in ethanol. Nordihydroguaiaretic acid and FeSo4 were prepared as 500x stocks in sterile water.
(§2) Neuronal survival was quantified by counting viable neurons in the same microscope fields (10x objective) immediately before experimental treatment and at time points after treatment. In addition, cells were grown in 96-well plates and Alamar blue fluorescence (Alamar Laboratories)was quantified by using a fluorescence plate reader. Alamar Blue is a non-fluorescent substrate that, after reduction by cell metabolites, becomes fluorescent. Usually neurons that died in the time intervals (20-48 h) between examination points were absent. Viability of the remaining neurons was assessed by morphological criteria. Neutrons with intact neurites of uniform diameter and a soma with a smooth, round appearance were considered viable, whereas neurons with fragmented neurites and a vacuolated or swollen soma were considered nonviable. Survival values were expressed as percentages of the initial number of neurons present before experimental treatment. Statistical comparisons were made using ANOVA and Scheffe post-hoc tests for pairwise comparisons.
FIG. 8. Cultures were preincubated 1 h in the presence of 0.5% dimethylsulfoxide (control), 100 nM cytochalasin D, 50 μg/ml vitamin E (VitE), or 2 μM nordihydroguairetic acid (NDGA). Cultures were then exposed for 6 h to the indicated concentrations of FeSO4 and neuronal survival was quantified. Values represent the means and SEM of determinations made in four separate cultures. *P<0.001 compared to value for cultures exposed to 100 μM FeSO4 alone.

[2] = tested on: neuronal [Ca^2+]i in cultured hippocampal neurons; experiment: measurement of [Ca^2+]i, fura-2 imaging; assay type: cell-based, rat; settings: 10 μM, 3 h pretreatment; 50 μM glutamate
From the text: as §1
Fluorescence ratio imaging of the Ca^2+ indicator dye fura-2 was used to quantify [Ca^2+ ]i in neuronal somata. Cells were incubated for 30-40 min in the presence of 2 μM acetoxymethyl ester form of the [Ca^2+ ]i indicator dye fura-2 and were then washed twice (2 ml/wash) with fresh medium and allowed to incubate at least 40 min before imaging. Immediately before imaging, the normal culture medium was replaced with Hanks' balanced saline solution (GIBCO) containing 10 mM HEPES buffer and 10 mM of glucose. Cells were imaged using a Zeiss Attofluor system with a oil objective or Quantex system with a 40x oil objective. The ratio of the fluorescence emission using two different excitation wavelengths (334 and 380 nm) was used to determine [Ca^2+ ]i. The system was calibrated using solutions containing either no Ca^2+ or a saturating level of Ca^2+ (1 mM) according to the following formula: [Ca^2+ ]i =KD [(R-Rmin) / (Rmax -R)] (F0 /FS). Values represent the average [Ca^2+ ]i in the neuronal cell body. Experimental treatments were added to the bathing medium by dilution from 100-500x stocks.
(A) Cultures were pretreated for 1 hr with 100 nM cytochalasin D and then [Ca^2+ ]i in neurons was monitored prior to and following exposure to 50 μM glutamate. The records represent the mean [Ca^2+ ]i in 8-12 neurons. Similar results were obtained in 4 separate experiments.
(B) Aβ-induced potentiation of [Ca^2+ ]i response to glutamate is abrogated by cytochalasin D. Cultures were left untreated (Control) or were exposed to 20 μM Aβ25-35 for 6 hr or cytochalasin D plus Aβ25-35 for 6 hr. The [Ca^2+ ]i was then monitored prior to following exposure to 50 μM glutamate. Values represent the means of 8-14 neurons. Similar results were obtained in 3 separate experiments.
(C) Cultures were pretreated for 3 hr with 50 μM Aβ alone or in combination with 100 nM cytochalasin D. The [Ca^2+ ]i in neurons was then monitored prior to and following exposure to 50 mM KCl. Values represent the mean of 14-23 neurons. Similar results were obtained in a separate experiment.
(D) Cultures were pretreated for 1 h with 100 nM cytochalasin D. The [Ca^2+ ]i in neurons was measured immediately prior to, and at 5 min following, exposure to the indicated concentrations of glutamate. Values represent the means and SEM of determinations made in 17-26 neurons. *P<0.05 (10 μM glutamate), P<0.02 (50 μM glutamate), P<0.01 (100 μAM glutamate) compared to corresponding control values.
FIG. 9. Cultures were pretreated for 3 h with vehicle (control) or 10 μM jasplakinolide. The [Ca^2+ ]i was monitored prior to and following exposure to 50 μM glutamate. Values represent the mean of determinations made in 10-12 neurons. Similar results were obtained in two additional experiments.
FIG. 10. […]

[3] = tested on: cultured hippocampal neurons; experiment: cells; assay type: cell-based, rat
[4] = tested on: cultured hippocampal neurons; experiment: cells; assay type: cell-based, rat; settings: Rattus norvegicus, Hippocampal neuron
From the text: as §1, §2
Values represent the means and SEM of 4 separate cultures (cell counts) or 4 culture wells (Alamar blue assay). ^a p<0.05 compared to control value. ^b p<0.001 compound to control value. ^c p<0.01 compared to value for glutamate-treated cultures. ^d p<0.005 compared to value for glutamate-treated cultures. ^e p<0.001 compared to value for Aβ-treated cultures. ^f p<0.001 compared to value for cultures treated with 20 μM glutamate. ^g p<0.001 compared to cultures treated with 50 μM Aβ+20 μM glutamate. n.d. not determined.

[5] = tested on: cultured hippocampal neurons; experiment: cells; assay type: cell-based, rat; remark: listed apart in the source
From the text: as §1, §2
FIG. 5. […] Cytochalasin D was added to cultures 30 min prior to exposure to glutamate, and control cultures were exposed to 0.2% dimethylsulfoxide.
(A) Neuronal survival was quantified in cultures that had been pretreated with the indicated concentrations of cytochalasin D and then exposed to 50 μM glutamate for 20 h. Values represent the means and SEM of determinations made in four separate cultures. […] Pairwise statistical comparisons of cytochalasin-treated cultures with the control survival (Scheffe's test) indicated 1 nM cytochalasin D, P<0.05; 10 nM cytochalasin D, P<0.001; 100 and 1000 nM cytochalasin D, P<0.0001.
(B) Neuronal survival was quantified in cultures that had been pretreated with either vehicle (control) or 100 nM cytochalasin D and then exposed to the indicated concentrations of glutamate for 20 h. Values represent the means and SEM of determinations made in four separate cultures. […] ANOVA with Scheffe's post hoc test.
FIG. 6. (A) Cultures were pretreated with 100 nM cytochalasin D (CyD), 100 nM cytochalasin E (CyE), or 100 nM colchicine (Colch). Cultures were then exposed to 50 μM glutamate for 20 h. Values for neuronal survival represent the means and SEM of determinations made in four separate cultures. *P<0.001 compared to control value. **P<0.001 compared to value for cultures exposed to glutamate alone.
[…] Values represent the means and SEM of determinations made in four separate cultures. *P<0.01 compared to value for cultures exposed to 20 μM glutamate alone. **P<0.05 compared to cultures exposed to 50 μM glutamate alone.

[6] = tested on: hippocampal region CA3 neurons; experiment: kainate lesion paradigm, CA3 neurons; assay type: in vivo, rat (Sprague-Dawley)
Protocol: A kainate lesion paradigm was employed in adult rats to determine whether cytochalasin D was also excitoprotective. Twenty-four adult male Sprague-Dawley rats (250-300 g) were divided into the indicated experimental groups (4-5 rats/group). Kainate (0.5 µg/[…]) was injected stereotaxically into region CA1 of the right hippocampus of anesthetized rats. Cytochalasin D (the indicated concentration in 1 μl of saline-1% DMSO) or vehicle was infused into the right lateral ventricle during a 5-10 min period immediately following kainate injection. Rats were killed 48 hr later and perfused transcardially with 4% paraformaldehyde. Brain sections (30 μm) were stained with cresyl violet and stained neurons in three adjacent 40X microscope fields of hippocampal region CA3 were counted (5 sections/rat) . The neuronal counts were performed in sections removed approximately 200-400 μm from the injection site. This method results in highly reproducible, 75-99%, neuronal loss in the CA3 region in over 99% of the rats injected with kainate (calculations based on 302 rats receiving intra-hippocampal kainate). […] Approximately 80% of the neurons were killed by kainate in control animals receiving an intracerebroventricular infusion of saline immediately following kainate administration.
Cresyl violet-stained coronal sections from brains of rats administered kainate alone (left) of kainate plus cytochalasin D (CyD; right). […] Lower micrographs are high magnification of a region of CA3 from the sections shown in the upper panels.
FIG. 3. Counts of viable neurons were made in region CA3 of Sham-operated rats, and rats infused intraventricularly with vehicle or increasing concentration of cytochalasin D […] unilateral kainate injection into region CA1 of the hippocampus. Neuronal survival in the kainate injected hippocampus is expressed as a percentage of neurons in the contralateral hippocampus. Values represent the mean and SEM (4 or 5 rats/group). *p<0.01 compared to value for sham rats. **p<0.01 compared to value for vehicle-infused rats. (ANOVA with Scheffe's post-hoc test).

[7] = tested on: cultured hippocampal neurons; assay type: cell-based, rat
From the text: as §1, §2
FIG. 12. (A) Cultures were pretreated for 1 h with vehicle 0.2% dimethyl sulfoxide (Control) or 100 nM cytochalasin D (CyD) and were exposed to the indicated concentrations of Aβ25-35 for 48 h. Data are mean and SEM values of determinations made in four separate cultures.
(B) Cultures were pretreated for 1 h with the indicated concentrations of cytochalasin D and then exposed to 50 μM Aβ25-35; parallel cultures were exposed to cytochalasin D alone (Control) . Data are mean and SEM values of determinations made in four separate cultures.
FIG. 14. Cultures were exposed to 100 nM colchicine; 50 μM Aβ; 100 nM colchicine plus 50 μM Aβ; 100 nM cytochalasin E (CyE) plus Aβ (colchicine and cytochalasin E were added 1 h before Aβ); neuronal survival was assessed 48 h later. Data are mean and SEM values of determinations made in four separate cultures. *p<0.01, compared with values for control or colchicine alone. **p<0.01, compared with value for cultures exposed to Aβ alone.

[8] = read-out: Neuron Survival (% of control), Alamar Blue Assay

## O=S(=O)([O-])[O-].[Fe+2] [FeSo4]
[1]; FeSO4 10-100 nM as printed, 6 h
  loss of neurons: concentration-dependent loss of neurons

## CC1=CC(C)CC(C)OC(=O)CC(c2ccc(O)cc2)NC(=O)C(Cc2c(Br)[nH]c3ccccc23)N(C)C(=O)C(C)NC(=O)C(C)C1 (centres unmarked) [Jasplakinolide, jasplakinolide, reference compound]
[2]
  effect on glutamate-induced elevation of [Ca^2+]i: potentiated
[3]; preincubated 3 h, 10 μM (FIG. 6B legend: 1 h, 5 μM)
  effect on glutamate neurotoxicity: significantly potentiated

## N[C@@H](CCC(=O)O)C(=O)O [Glutamate, glutamate, reference compound]
[4]; [8]
  viability at 20 µM: 74 ± 0.7%
  viability at 100 µM: 18 ± 5.4%
[4]; read-out: Neuron Survival (% of control), Cell Counts
  viability at 100 µM: 15 ± 3.3%
[3]; Rattus norvegicus, Hippocampal neuron, 24 h, read-out: neuronal survival in cultures exposed to glutamate
  viability at 100 µM: < 20%
[5]; Rattus norvegicus, Hippocampal neuron, 20 h, read-out: ED50 for reduction in neuronal survival
  CC50: ~35 µM
[5]; Rattus norvegicus, Hippocampal neuron, 20 h, read-out: maximum killing of neurons
  cytotoxicity at 100 µM: > 80%
[5]; Rattus norvegicus, Hippocampal neuron, 20 h, read-out: neurons killed
  cytotoxicity at 50 µM: > 70%

## C=C(C)[C@H]1CN[C@H](C(=O)O)[C@H]1CC(=O)O [Kainate, kainate, reference compound]
[6]; control animals receiving i.c.v. saline, 48 hr
  neurons killed by kainate: Approximately 80%
[6]; intrahippocampal kainate, over 99% of rats (302 rats)
  neuronal loss in the CA3 region: 75-99%

## CC(Cc1ccc(O)c(O)c1)C(C)Cc1ccc(O)c(O)c1 (centres unmarked) [nordihydro-guaiaretic acid, Nordihydroguaiaretic acid]
[1]; 50 μg/ml vitamin E or 2 μM NDGA, 1 h preincubation
  effect on neurotoxicity of iron: completely blocked

## C[C@H]1C/C=C/[C@H]2[C@@H]3O[C@]3(C)[C@@H](C)[C@H]3[C@H](Cc4ccccc4)NC(=O)[C@]32OC(=O)O/C=C/[C@@](C)(O)C1=O [Cytochalasin E, cytochalasin E]
[5]; 100 nM, 50 μM glutamate, 20 h
  protection against glutamate toxicity: significant protection against glutamate toxicity
[5]; 10-100 nM
  protection against toxicity of glutamate: protected
[7]; 100 nM, added 1 h before 50 μM Aβ, 48 h
  effect on Aβ neurotoxicity: attenuated Aβ neurotoxicity significantly
[7]; 10-100 nM
  protection against toxicity of Aβ: protected
